≈ marks a conversion by molar mass, not a printed value. Where two headings read alike, the source gives them in different places.
Experiments:
Format in all cases: cell-based
S. aureus [1] = assay: Antimicrobial susceptibility (MIC/MBEC), standard assays in polystyrene wells; details: for MIC: Staphylococcus aureus
S. aureus biofilm [2] = assay: Ex vivo rat femur biofilm eradication setting; details: K-W test, p<0.01, comparator=control, FIG. 18B
S. aureus [3] = assay: Preventative hydroxyapatite (HA) experiment; details: K-W test, p<0.01; comparator=control; FIG. 16
Description: FIG. 16 depicts the results of a preventative hydroxyapatite (HA) experiment with tested compounds against S. aureus.
FIG. 16 depicts the results of a preventative hydroxyapatite (HA) experiment with tested compounds against S. aureus. […] (K-W test, * p<0.01; comparator=control). The results were obtained using standard assays.

S. aureus biofilm [4] = assay: Ex vivo rat femur biofilm prevention setting; details: rat femurs saturated with compound; K-W test, p<0.01; comparator=control; FIG. 18B
Description: (§1) FIG. 18A is a picture of rat femurs saturated with antibiotics or the conjugates after they are introduced to a solution of S. aureus in our ex vivo preventative experimental setting. The more the bone appears red, the more staphylococcal biofilms there are adhered to the surface in those regions.
as §1, with “depicts” for “is”

Aa = assay: Antimicrobial susceptibility (MIC/MBEC), standard assays in polystyrene wells
[5] = S. aureus, polystyrene wells, read-out: MIC

SMILES	MIC (S. aureus [1]; [5])	MIC (Aa)	MBEC (S. aureus [1]; S. aureus, polystyrene wells)	S. aureus biofilm eradication on femurs ex vivo (S. aureus biofilm [2])	efficacy for preventing the growth of staphylococcal cells on HA (S. aureus [3])	S. aureus biofilm prevention on femurs ex vivo (S. aureus biofilm [4])	MBEC (Aa)	MIC (S. aureus [1])
Cn1nnc(-c2ccc(-c3ccc(N4C[C@H](COC(=O)c5ccc(CC(P(=O)(O)O)P(=O)(O)O)cc5)OC4=O)cc3F)cn2)n1 [BET, (R)-(2-(4-(((3-(3-fluoro-4-(6-(2-methyl-2H-tetrazol-5-yl)pyridin-3-yl)phenyl)-2-oxooxazolidin-5-yl)methoxy)carbonyl)phenyl)ethane-1,1-diyl)bis(phosphonic acid)]	4 µg/mL (≈ 6.04 µM)	–	16 µg/mL	significantly prevented or eradicated biofilm growth	statistically significant efficacy for preventing the growth of staphylococcal cells	significantly prevented or eradicated biofilm growth	–	–
O=C(O)c1cn(C2CC2)c2cc(N3CCNCC3)c(F)cc2c1=O [C, Ciprofloxacin]	0.5 µg/mL (≈ 1.51 µM)	0.5 µg/mL (≈ 1.51 µM)	32 µg/mL	–	–	–	8 µg/mL	–
CN(C)c1ccc(O)c2c1C[C@H]1C[C@H]3[C@H](N(C)C)C(O)=C(C(N)=O)C(=O)[C@@]3(O)C(O)=C1C2=O [M, Minocycline]	0.25 µg/mL (≈ 0.546 µM)	2 µg/mL (≈ 4.37 µM)	16 µg/mL	–	–	–	8 µg/mL	–
CN[C@H](CC(C)C)C(=O)N[C@H]1C(=O)N[C@@H](CC(N)=O)C(=O)N[C@H]2C(=O)N[C@H]3C(=O)N[C@H](C(=O)N[C@H](C(=O)O)c4cc(O)cc(O)c4-c4cc3ccc4O)[C@H](O)c3ccc(c(Cl)c3)Oc3cc2cc(c3O[C@@H]2O[C@H](CO)[C@@H](O)[C@H](O)[C@H]2O[C@H]2C[C@](C)(N)[C@H](O)[C@H](C)O2)Oc2ccc(cc2Cl)[C@H]1O [V, Vancomycin]	–	–	8 µg/mL	–	–	–	–	1 µg/mL (≈ 0.69 µM)

More lines, main results first:

MIC (S. aureus [1]; [5])	MIC (Aa)	SMILES	MBEC (S. aureus [1]; S. aureus, polystyrene wells)	S. aureus biofilm eradication on femurs ex vivo (S. aureus biofilm [2])	efficacy for preventing the growth of staphylococcal cells on HA (S. aureus [3])	S. aureus biofilm prevention on femurs ex vivo (S. aureus biofilm [4])	MBEC (Aa)	MIC (S. aureus [1])
16 µg/mL (≈ 23.6 µM)	–	Cn1nnc(-c2ccc(-c3ccc(N4C[C@H](COC(=O)Nc5ccc(CC(P(=O)(O)O)P(=O)(O)O)cc5)OC4=O)cc3F)cn2)n1 [BCT, (R)-(2-(4-((((3-(3-fluoro-4-(6-(2-methyl-2H-tetrazol-5-yl)pyridin-3-yl)phenyl)-2-oxooxazolidin-5-yl)methoxy)carbonyl)amino)phenyl)ethane-1,1-diyl)bis(phosphonic acid)]	32 µg/mL	–	–	–	–	–
0.5 µg/mL (≈ 1.35 µM)	–	Cn1nnc(-c2ccc(-c3ccc(N4C[C@H](CO)OC4=O)cc3F)cn2)n1 [T, Tedizolid]	8 µg/mL	–	–	–	–	–
0.05 µg/mL (≈ 0.125 µM)	0.05 µg/mL (≈ 0.125 µM)	COc1c(N2C[C@@H]3CCCN[C@@H]3C2)c(F)cc2c(=O)c(C(=O)O)cn(C3CC3)c12 [X, Moxifloxacin]	0.5 µg/mL	–	–	–	0.1 µg/mL	–

Reference: patent US12285489B2, “Bone targeted antimicrobial oxazolidinone related compounds, formulations thereof, and uses thereof” (priority 2018, dated 2025)
